{"source": "ChEMBL document CHEMBL4411260", "about": "“Dual Inhibition of TYK2 and JAK1 for the Treatment of Autoimmune Diseases: Discovery of (( S)-2,2-Difluorocyclopropyl)((1 R,5 S)-3-(2-((1-methyl-1 H-pyrazol-4-yl)amino)pyrimidin-4-yl)-3,8-diazabicyclo[3.2.1]octan-8-yl)methanone (PF-06700841)” (J Med Chem, 2018)", "format_in_all_cases": "ADME, organism-based", "key": {"[1]": {"experiment": "Plasma clearance in Sprague-Dawley rat at 1 mg/kg, iv or 3 mg/kg, po"}, "[2]": {"experiment": "Cmax in complete freund's adjuvant-induced Lewis rat arthritis model plasma at 30 mg/kg, po qd administered via gavage treated for 7 consecutive days measured after 30 mins post last dose", "parameters": "dose 30 mg/kg, route oral"}, "[3]": {"experiment": "Volume of distribution at steady state in Sprague-Dawley rat at 1 mg/kg, iv or 3 mg/kg, po", "conditions": "in vivo, read-out: Vdss"}, "[4]": {"experiment": "Cmax in complete freund's adjuvant-induced Lewis rat arthritis model plasma at 3 mg/kg, po qd administered via gavage treated for 7 consecutive days measured after 30 mins post last dose", "parameters": "dose 3 mg/kg, route oral", "conditions": "in vivo, 0.5 h"}, "[5]": {"experiment": "Cmax in complete freund's adjuvant-induced Lewis rat arthritis model plasma at 10 mg/kg, po qd administered via gavage treated for 7 consecutive days measured after 30 mins post last dose", "parameters": "dose 10 mg/kg, route oral"}, "[6]": {"experiment": "Cmin in complete freund's adjuvant-induced Lewis rat arthritis model plasma at 3 mg/kg, po qd administered via gavage treated for 7 consecutive days measured after 24 hrs post last dose", "conditions": "read-out: Cmin"}, "[7]": {"experiment": "Oral bioavailability in Sprague-Dawley rat at 3 mg/kg", "conditions": "in vivo"}, "[8]": {"experiment": "Cmax in Sprague-Dawley rat at 3 mg/kg, po", "parameters": "dose 3 mg/kg, route oral", "conditions": "in vivo"}, "[9]": {"experiment": "Cmin in complete freund's adjuvant-induced Lewis rat arthritis model plasma at 10 mg/kg, po qd administered via gavage treated for 7 consecutive days measured after 24 hrs post last dose", "conditions": "read-out: Cmin"}, "[10]": {"experiment": "AUC (0 to infinity) in Sprague-Dawley rat at 3 mg/kg, po", "parameters": "dose 3 mg/kg, time infinity, route oral", "conditions": "in vivo"}, "[11]": {"experiment": "Cmin in complete freund's adjuvant-induced Lewis rat arthritis model plasma at 30 mg/kg, po qd administered via gavage treated for 7 consecutive days measured after 24 hrs post last dose", "conditions": "read-out: Cmin"}}, "data": [{"smiles": "Cc1ccc(S(=O)(=O)O)cc1.Cn1cc(Nc2nccc(N3CC4CC[C@H](C3)N4C(=O)[C@@H]3CC3(F)F)n2)cn1", "note": "(single isomer, unassigned)", "values": [{"measurement": "clearance", "setting": "[1]", "value": 31, "unit": "mL/min/kg"}, {"measurement": "Cmax", "setting": "[2]", "value": 23900, "unit": "nM"}, {"measurement": "Vd", "setting": "[3]", "value": 2, "unit": "L/kg"}, {"measurement": "Cmax", "setting": "[4]", "value": 3540, "unit": "nM"}, {"measurement": "Cmax", "setting": "[5]", "value": 11000, "unit": "nM"}, {"measurement": "concentration at 24 h", "setting": "[6]", "value": 22.1, "unit": "nM"}, {"measurement": "bioavailability", "setting": "[7]", "value": 83, "unit": "%"}, {"measurement": "Cmax", "setting": "[8]", "value": 774, "unit": "ng/mL"}, {"measurement": "concentration at 24 h", "setting": "[9]", "value": 60, "unit": "nM"}, {"measurement": "AUC(0-inf)", "setting": "[10]", "value": 1340, "unit": "ng·h/mL"}, {"measurement": "concentration at 24 h", "setting": "[11]", "value": 60, "unit": "nM"}]}]}
